Earlier results on 2 compounds are cited in patent US20240366596A1, “TREATMENT OF HFPEF IN POST-MENOPAUSAL WOMEN WITH AN SGC STIMULATOR” (Cyclerion Therapeutics, Inc., priority 2021, published 2024).

Series [1] relates to patients with chronic HF with HFpEF. The conditions noted are these: top-line results; cited from earlier work.
The subject of series [2] is subjects with symptomatic HF and an LVEF≥45%. The conditions noted are these: women, spironolactone vs placebo, subjects from the Americas; cited from earlier work.

Consider `OC[C@H]1O[C@@H](c2ccc(Cl)c(Cc3ccc(O[C@H]4CCOC4)cc3)c2)[C@H](O)[C@@H](O)[C@@H]1O` [empagliflozin], for which the “risk for the composite of cardiovascular death or hospitalization for HF compared with placebo” value in series [1] is on record as “significantly reduced risk”.

For `CC(=O)S[C@@H]1CC2=CC(=O)CC[C@]2(C)[C@H]2CC[C@@]3(C)[C@@H](CC[C@@]34CCC(=O)O4)[C@H]12` [spironolactone], the “all-cause mortality HR” value in series [2] is reported as 0.66.
